Columns and labels:
[1] = Qualitative distribution of REDD14Cy3.5 siRNA in lung and kidney (fluorescence analysis); assay type: in vivo, cynomolgus monkeys; conditions: after oronasal inhalation
Method: On Day 15 of the study, two of the available animals (101 and 102) were administered a target dose of 35 mg/kg of a mixture of I5NP and REDD14Cy3.5 (fluorescence-labelled) siRNA via an oronasal mask as a nebulized aerosol generated by the Aeroneb device. A 2.0 L/min dilution airflow was used. The total dose of siRNA administered was calculated, based on the bodyweights and measured respiratory minute volumes of the animals, and on the achieved output of the Aeroneb device using the formulation concentration of 40 mg/mL of siRNA. The administered dose was adjusted by changing the exposure times for the animals
At the time of necropsy following Treatment 2, the lungs, bronchi and trachea of animal 102 were removed from the animal. The lungs were perfused with 4% paraformaldehyde, introduced using a syringe, via the trachea and/or bronchus and stored in this fixative at ambient temperature for a period of approximately 21 hours. Following this, as much as possible of the original fixative fluid was withdrawn by syringe via the trachea/bronchus and replaced with 0.2% paraformaldehyde. The fixed lungs were analyzed for fluorescence distribution.
At the time of necropsy following Treatment 2, the right kidney of animal 102 was removed from the animal. The kidney was dissected into quarters by making one longitudinal and one transverse cut, each to pass through the hilus, and then immersed in 4% paraformaldehyde and refrigerated for approximately 21 hours. Following this, the fixing solution was changed to 0.2% paraformaldehyde and the kidney was analyzed for fluorescence distribution.
Following Treatment 2, lung and kidney samples from animal 102 were analyzed for distribution of fluorescence (from REDD14Cy3.5 siRNA). The results were considered to be qualitative.

[2] = I5NP siRNA concentration and non-compartmental pharmacokinetics in plasma after single oronasal inhalation (hybridisation assay); assay type: in vivo, cynomolgus monkeys; conditions: for tmax: Treatment 1 (I5NP only), single oronasal inhalation; for AUC0-inf / AUC0-tlast / Cmax / Extrapolation (AUC0-inf − AUC0-tlast)/AUC0-inf × 100 / kel / t1/2 / tlast: Treatment 1, single oronasal inhalation
Method: Male cynomolgus monkeys were administered single oronasal inhalation doses of a nebulised aerosol formulation of fluorescent-labelled REDD14Cy3.5 and/or I5NP siRNAs. Following dosing, the concentration of I5NP in plasma, the non-compartmental disposition kinetics of I5NP in plasma, the qualitative distribution of REDD14Cy3.5 in lungs and the semi-quantitative distribution of I5NP in lungs were determined.
Three separate dose treatments were administered to the animals as detailed below. The theoretical inhalation achieved doses of siRNA were calculated from the respiratory minute volume (measured during pre-treatment), the aerosol concentration of the test article (measured gravimetrically during pre-treatment calibration of the nebuliser), the treatment time, the total aerosol depostion fraction (assumed as 100%) and the animal bodyweights on the day before each dose administration.
On Day 1 of the study, four of the available monkeys ([…]) were administered a target dose of 35 mg/kg of I5NP siRNA via an oronasal mask as a nebulized aerosol generated by the Aeroneb device. A 2.0 L/min dilution airflow was used. The total dose administered was calculated, based on the bodyweights and measured respiratory minute volumes of the animals, and on the achieved output of the Aeroneb device using the formulation concentration of 40 mg/mL. The administered dose was adjusted by changing the exposure times for the animals. Animals received treatment sequentially, rather than in parallel, using the single calibrated test Aeroneb.
On Day 35 of the Study, the three remaining main study animals (103 to 105) were administered a target dose of 35 mg/kg of I5NP siRNA via an oronasal mask as a nebulized aerosol generated by the Aeroneb device. A 2.0 L/min dilution airflow was used. The total dose administered was calculated, based on the bodyweights and measured respiratory minute volumes of the animals, and on the achieved output of the Aeroneb device using the formulation concentration of 40 mg/mL. The administered dose was adjusted by changing the exposure times for the animals.
A blood sample (0.5 mL) was collected at pre-dose, and at 15 minutes, 30 minutes, 1, 2, 4, 6, 8 and 24 hours post-end of inhalation, from the left or right femoral vein of each animal that received the full dose (101, 102, 103 and 106). Blood was collected into tubes with K3EDTA as the anticoagulant and then placed on wet ice pending centrifugation.
A blood sample (0.5 mL) was collected at pre-dose and at 15 minutes post-end of inhalation from all animals (103, 104 and 105). A third blood sample was collected at 6 h (animal 103), 24 h (animal 104) or 72 h (animal 105) post-end of inhalation. Blood was collected, into K3EDTA tubes, from the left or right femoral vein of each animal (103 to 105), and placed on wet ice pending centrifugation.
Blood was kept on wet ice until it was centrifuged, at 4° C. and 2700 rpm for approximately 10 minutes, to separate plasma (within 1 hour of collection). Plasma samples were separated, transferred to appropriately labeled vials and placed on dry ice prior to storage at approximately −80° C.
Following Treatments 1 and 3, plasma samples were analyzed for I5NP siRNA concentration at PCS-MTL according to a validated hybridization method.
Non-compartmental disposition kinetics in plasma was performed on concentration data from individual animals following Treatment 1. The following parameters were estimated as applicable:
All pharmacokinetic parameters were estimated using WinNonlin version 3.2 computer software.

[3] = Treatment 1, 8 hours post-end of dose
[4] = plasma, Treatment 1, mean of 4 animals

**Q.** For “I5NP: exemplary p53 inhibiting siRNA; sense GAGAAUAUUUCACCCUUCA, antisense UGAAGGGUGAAAUAUUCUC (chemistry not given here)”, which “distribution in lung, I5NP (hybridization) and REDD14Cy3.5 (fluorescence) compared” value [1] is on record?
**A.** The value was “little difference in the distribution of the two test articles in lung”.

**Q.** What about the “highest mean concentration in plasma” value ([2]; Treatment 1, 15 minutes post-end of dosing, mean of 4 animals) of the same substance?
**A.** Its value is 21.0 ± 5.01 ng/mL.

**Q.** What about the mean plasma level [2, 3] of the same substance?
**A.** The mean plasma level was 0.588 ± 0.561 ng/mL.

**Q.** And the “plasma level as % of the Cmax value” [2, 3]?
**A.** The value was “approximately 3%”.

**Q.** What about the plasma concentration ([2]; Treatment 1, 24 h post-end of dosing, animal 101) of the same substance?
**A.** The plasma concentration was 0.205 ng/mL.

**Q.** What about the “plasma concentration (below limit of quantitation)” value ([2]; Treatment 1, after 8 h or 24 h post-end of dosing (at 24 h all animals other than 101)) of the same substance?
**A.** The value was < 0.10 ng/mL.

**Q.** What about the “absorption into the systemic circulation from the inhaled dose” value ([2]; Treatment 1, oronasal inhalation) of the same substance?
**A.** Its value is “rapid”.

**Q.** And the mean plasma concentration ([2]; Treatment 3, 15 minutes post-end of dose)?
**A.** The mean plasma concentration was 40.3 ± 14.5 ng/mL.

**Q.** And the plasma level ([2]; Treatment 3, 6 h post-end of dose, animal 103)?
**A.** Its plasma level is 11.1 ng/mL.

**Q.** And the plasma level ([2]; Treatment 3, 24 h post-end of dose, animal 104)?
**A.** The plasma level was 0.192 ng/mL.

**Q.** And the “plasma concentration (less than limit of quantitation)” value ([2]; Treatment 3, 72 hours post-end of dosing, animal 105)?
**A.** The value was < 0.10 ng/mL.

**Q.** What about the tmax ([2]; plasma, animal 101) of the same substance?
**A.** The tmax was 0.5 h.

**Q.** What about the tmax ([2]; plasma, animal 102) of the same substance?
**A.** Its tmax is 0.5 h.

**Q.** What about the tmax ([2]; plasma, animal 103) of the same substance?
**A.** Its tmax is 0.42 h.

**Q.** And the tmax ([2]; plasma, animal 106)?
**A.** Its tmax is 0.42 h.

**Q.** What about the AUC0-inf ([2]; plasma, animal 101) of the same substance?
**A.** Its AUC0-inf is 72.0 ng·h/mL.

**Q.** What about the AUC0-tlast ([2]; plasma, animal 101) of the same substance?
**A.** The AUC0-tlast was 70.3 ng·h/mL.

**Q.** And the Cmax ([2]; plasma, animal 101)?
**A.** The Cmax was 26.3 ng/mL.

**Q.** And the “Extrapolation (AUC0-inf − AUC0-tlast)/AUC0-inf × 100” value (shortened to “Extrapolation”) ([2]; plasma, animal 101)?
**A.** Its value is 2.36%.

**Q.** And the kel ([2]; plasma, animal 101)?
**A.** Its kel is 0.121 h⁻¹.

**Q.** What about the t1/2 ([2]; plasma, animal 101) of the same substance?
**A.** The t1/2 was 5.74 h.

**Q.** And the tlast ([2]; plasma, animal 101)?
**A.** Its tlast is 24.25 h.

**Q.** What about the AUC0-inf ([2]; plasma, animal 102) of the same substance?
**A.** The AUC0-inf was 27.3 ng·h/mL.

**Q.** And the AUC0-tlast ([2]; plasma, animal 102)?
**A.** Its AUC0-tlast is 27.1 ng·h/mL.

**Q.** And the Cmax ([2]; plasma, animal 102)?
**A.** Its Cmax is 18.0 ng/mL.

**Q.** What about the “Extrapolation” value ([2]; plasma, animal 102) of the same substance?
**A.** The value was 0.824%.

**Q.** What about the kel ([2]; plasma, animal 102) of the same substance?
**A.** The kel was 0.467 h⁻¹.

**Q.** And the t1/2 ([2]; plasma, animal 102)?
**A.** Its t1/2 is 1.48 h.

**Q.** What about the tlast ([2]; plasma, animal 102) of the same substance?
**A.** Its tlast is 8.25 h.

**Q.** And the AUC0-inf ([2]; plasma, animal 103)?
**A.** The AUC0-inf was 46.8 ng·h/mL.

**Q.** What about the AUC0-tlast ([2]; plasma, animal 103) of the same substance?
**A.** The AUC0-tlast was 42.4 ng·h/mL.

**Q.** What about the Cmax ([2]; plasma, animal 103) of the same substance?
**A.** Its Cmax is 24.0 ng/mL.

**Q.** And the “Extrapolation” value ([2]; plasma, animal 103)?
**A.** Its value is 9.40%.

**Q.** And the kel ([2]; plasma, animal 103)?
**A.** The kel was 0.252 h⁻¹.

**Q.** What about the t1/2 ([2]; plasma, animal 103) of the same substance?
**A.** The t1/2 was 2.75 h.

**Q.** What about the tlast ([2]; plasma, animal 103) of the same substance?
**A.** The tlast was 8.17 h.

**Q.** And the AUC0-inf ([2]; plasma, animal 106)?
**A.** Its AUC0-inf is 16.1 ng·h/mL.

**Q.** What about the AUC0-tlast ([2]; plasma, animal 106) of the same substance?
**A.** The AUC0-tlast was 15.8 ng·h/mL.

**Q.** What about the Cmax ([2]; plasma, animal 106) of the same substance?
**A.** The Cmax was 15.6 ng/mL.

**Q.** And the “Extrapolation” value ([2]; plasma, animal 106)?
**A.** The value was 2.26%.

**Q.** What about the kel ([2]; plasma, animal 106) of the same substance?
**A.** The kel was 0.277 h⁻¹.

**Q.** What about the t1/2 ([2]; plasma, animal 106) of the same substance?
**A.** The t1/2 was 2.50 h.

**Q.** And the tlast ([2]; plasma, animal 106)?
**A.** The tlast was 8.17 h.

**Q.** And the “mean AUC0-inf” value [2, 4]?
**A.** Its value is 40.6 ± 24.5 ng·h/mL.

**Q.** What about the “mean AUC0-tlast” value [2, 4] of the same substance?
**A.** The value was 38.9 ± 23.6 ng·h/mL.

**Q.** What about the mean kel [2, 4] of the same substance?
**A.** Its mean kel is 0.279 ± 0.143 h⁻¹.

**Q.** What about the “mean t1/2” value [2, 4] of the same substance?
**A.** Its value is 3.12 ± 1.83 h.

From patent US20100215588A1, “THERAPEUTIC DELIVERY OF INHIBITORY NUCLEIC ACID MOLECULES TO THE RESPIRATORY SYSTEM” (priority 2007, published 2010)
